For orientation: IC50 means the concentration at which inhibition is half-maximal. Broadly, the ED50 is the dose at which the effect has come halfway, by size or by number of responders.

The record followed here is US9663463B2, “3-azabicyclo[3.1.0]hexane derivative and use thereof for medical purpose” (priority 2013, dated 2017).

The nature of data set [1]: Plasma concentration of test substance at ED50 value (mice, LC/MS/MS). The following applies: at the ED50 value, at time of morphine administration, oral, linear regression from two doses. The class given is in vivo. The procedure: The concentration of the test substances in blood plasma was confirmed by using mice of the same week-old for the same dose as that used in the evaluation of the anti-pruritic effect. The test substance was administered by forced oral administration of an administration vehicle prepared in a similar manner to that in the evaluation of the anti-pruritic effect under a non-fasting condition. The blood samples were collected from the orbital venous plexus, within from 15 minutes after the administration of the test substance to after 180 minutes at the maximum, for multiple times including the timing at which the morphine solution was intracisternally administered, under inhalation anesthesia with diethyl ether or isoflurane using a heparin-treated hematocrit tubes. The collected blood samples were immediately ice-cooled and centrifuged at 1,800 g for 15 minutes at 4° C., and the plasma fractions were transferred and stored under freezing at −30° C. or less until measurement.
The concentrations of the test substances in plasma were measured using LC/MS/MS. Furthermore, as the measurement samples for LC/MS/MS, the supernatants obtained by adding an internal standard substance and acetonitrile in an amount within a range from 5-fold to 10-fold of the amount of the plasma to the collected plasma samples, and removing proteins therefrom, was used.

In the next data set the target is human μ-opioid receptor (Homo sapiens (Human), UniProt P35372). The data set can be described thus: Antagonist activity test using [35S]-GTPγS bond as index using human μ-opioid receptor-expressing cell membrane. It counts as biochemical. The conditions noted are these: inhibition of DAMGO (10 nM)-stimulated [35S]-GTPγS binding, human μ-opioid receptor membrane; read-out: IC50. The method, then: Cells in which a human μ-opioid receptor had been highly expressed was purchased from ChanTest (Cleveland). The cells were cultured in a carbon dioxide gas culturing apparatus by using a Ham's F12 culture medium (Invitrogen) containing 10% of fetal bovine blood serum, 1% of non-essential amino acids, 0.4 mg/ml of G418, 100 U/ml of penicillin and 100 μg/ml of streptomycin. The cultured cells were suspended by using a 0.25% trypsin 1 mM EDTA solution, the suspension was collected by using phosphate-buffered saline and centrifuged at 4° C. and 1,000 rpm for 10 minute to remove the supernatant, whereby a cell mass was obtained. […] Similar homogenization and centrifugation operations were repeated on the sediment, a homogenized buffer was added again to the obtained sediment, and the resultant was similarly homogenized to give a membrane fraction solution. The obtained membrane fraction solution was dispensed, rapidly frozen and stored under freezing at −70° C. or less until use. Furthermore, the protein concentration of the obtained membrane fraction solution was measured by using a BCA protein Assay Kit (Cat. 23227, Pierce) according to the protocol attached to the kit.
The cell membrane fraction solution in which the human μ-opioid receptor had expressed, which had been stored under freezing, was melted, a GTP assay buffer (100 mM NaCl, 5 mM MgCl2, 1 mM EDTA-containing 50 mM Hepes (pH 7.4)) was added thereto, and the resultant was homogenized repeatedly twice by using a Polytron homogenizer (SMT Multi Disperser PB95) under ice cooling at 12,000 rpm for 20 seconds to give a homogeneous solution, and the homogeneous solution was diluted to 0.036 mg/ml with a GTP assay buffer containing 18.2 μM of GDP (final concentration: […]). The dilution was incubated for 15 minutes or more under ice cooling until the reaction was initiated. […] [^35S]-GTPγS (NEG030X, Perkinelmer) was diluted with a GTP assay buffer so as to be 0.616 nM (final concentration: 0.08 nM). The resultant was diluted with a GTP assay buffer so as to be 200 nM (final concentration: 10 nM) by using [D-Ala^2, N-Me-Phe^4, Gly^5-ol]-enkephalinacetate (DAMGO, Sigma) as a μ-opioid receptor agonist. WGA Coated PVT SPA Beads (RPNQ0001, Perkinelmer) were added so as to be 20 mg/ml with a GTP assay buffer, and the resultant was suspended (final concentration: 1 mg/well). 4 μL/well of a test substance solution, 10 μL/well of a DAMGO solution, 26 μL/well of a [^35S]-GTPγS solution, […] of a suspension liquid of WGA Coated PVT SPA Beads, and 110 μL/well of the membrane fraction solution were added to a 96 well plate (1450-401, Perkinelmer), the top part of the plate was sealed, and a reaction was performed at 30° C. for 60 minutes under stirring with a plate shaker. For each measurement plate, a well to which DMSO had been added instead of the test substance, and a well to which DMSO had been added instead of the test substance and a GTP assay buffer had been added instead of the DAMGO solution were prepared. Furthermore, after the reaction was completed, the reactant was centrifuged at room temperature and 1,000 rpm for 3 minutes, and the radioactivity was measured by a microplate scintillation luminescence counter (Perkinelmer).
The IC50 value of the test substance was calculated by using Graphpad Prism 5.

Another data set has as its system Mice serum protein. Nature of the data set: in vitro. The class given is in vitro ADME. The following applies: murine serum, equilibrium dialysis, 37° C., 5 to 6 hours. The method, then:
The protein binding rate was determined by equilibrium dialysis method using the RED Device (8K MWCO, Rapid Equilibrium Dialysis Device, Thermo Scientific). The test substances that had been dissolved in DMSO were added to the serum that was collected from Crl: CD-1 (ICR) mice fasted overnight, so that the final concentration of DMSO became 1% (v/v). The serum to which the test substance had been added was added to the inner side of the dialysis membrane of the RED Device, and PBS (phosphate buffer saline, pH 7.4) containing 0.01% (v/v) Tween 80 was added to the outside in accordance with the method for using the RED Device and incubated at 37° C. for 5 to 6 hours with ellipsoidal shaking at 100 rpm so that the concentration of the unbound test substance in the serum and the concentration of the test substance in the PBS reached equilibrium. After the incubation was completed, the respective solutions were collected and stored under freezing at −60° C. or less as measurement samples. The proteins were removed from the measurement sample by adding acetonitrile in an amount of 5-fold or more of the amount of the internal standard substance and the serum sample, and the supernatants were measured by LC/MS/MS (liquid chromatograph—triple quadrupole mass spectrometer). The serum samples were measured after suitably diluting with distilled water as necessary.
A: the concentration of the test substance in the PBS sample
B: the concentration of the test substance in the serum sample
A general note: Equilibrium dialysis compares concentrations on both sides of a semipermeable membrane.

For data set [2], the system named is pruritus mice model to which morphine had been intracisternally administered. The data set can be described thus: Anti-pruritic effect in pruritus mice model to which morphine had been intracisternally administered. The following applies: oral administration, male ICR mice, inhibition of morphine-induced scratching behavior. The class given is in vivo. The method, then: As experimental animals, male ICR (Cr1j: CD1 (ICR): Charles River Japan) mice were used at 5 to 6-week old. The mice were placed in an acrylic cage (colorless and transparent, W 13.5 cm×D 9.5 cm×H 40 cm) for observing scratching behavior for 30 minutes or more to thereby allow the mice to get used to the observation environment, and the test substance solutions were forcedly orally administered to the test substance-administered groups. In addition, an administration vehicle was forcedly orally administered to the normal control group and the pathological control group. A necessary amount of the test substance was weighed and formed into a micropowder in an agate mortar, an administration vehicle, a 0.5 w/v % methyl cellulose 400 solution (Wako Pure Chemical Industries Ltd.) was added little by little, and preparation was performed by suspending or dissolving so as to give an intended concentration (from 0.025 to 3 mg/ml). The test doses were preset to suitable doses in the range in which the maximum dose is 30 mg/10 ml/kg.
Based on 30 minutes after the forced oral administration of the test substance as a criterion, the time for the intracisternal administration of morphine was suitably set up to 120 minutes after at the maximum, with consideration for the times of maximum plasma concentration of the respective test substances, in the case when the in vivo pharmacokinetics of the test substance had been confirmed in advance. Furthermore, saline was intracisternally administered to the normal control group, and the above-mentioned morphine solution was intracisternally administered to the pathogenic control group, so as to be 5 μL/site at the same time as that of the test substance group after the forced oral administration of the administration vehicle in either case.
The behavior of each mouse within 60 minutes from the intracisternal administration of the morphine solution or saline was recorded by a digital video camera that was installed immediately above the acrylic cage, the images were stored in a digital video recorder, and the number of frequency of the scratching behavior was measured. The number of frequency of the scratching behavior was measured with deeming a behavior in which the mouse raised its hindlimb, scratched the facial surface and the peripheral sites thereof, and got the hindlimb off from the body within 30 minutes from after the intracisternal administration of the morphine or saline as one time.
The anti-pruritic effect of each test substance was obtained as follows. As an inhibition ratio against the number of frequency of the scratching behavior on the pathological control group, the inhibition ratio (%) of the respective individuals and the average value thereof were calculated from the following formula, and an ED50 value was calculated based on the obtained inhibition ratio. Inhibition ratio of each individual (%)={1−(A−Vehicle)/(Morphine−Vehicle)}×100 Morphine: the average of the scratching number of the pathological control group Vehicle: the average of the scratching number of the normal control group A: the scratching number of each individual in the test substance-administered group

In the case of `CC[C@]1(c2cccc(NS(C)(=O)=O)c2)[C@@H]2CN(CC3(O)Cc4ccccc4C3)C[C@@H]21.CS(=O)(=O)O` [Comparative compound 1, N-(3-{(1R,5S,6r)-6-ethyl-3-[(2-hydroxy-2,3-dihydro-1H-inden-2-yl)methyl]-3-azabicyclo[3.1.0]hexan-6-yl}phenyl)methanesulfonamide methanesulfonate, reference compound], in data set [1], the “Plasma concentration of test substance” value worked out at 157 nM. Besides, on human μ-opioid receptor, the IC50 was 1.3 nM. For the same compound, the Protein binding rate in the data set with Mice serum protein came out at 93.2%. Moreover, in data set [2], the ED50 is 2.6 mg/kg.
